The text below walks through data of patent US10758534B2 (Vertex Pharmaceuticals Incorporated, priority 2014, dated 2020).

T1 sequence (P13569 with tags, fused parts or gaps DEL508-508): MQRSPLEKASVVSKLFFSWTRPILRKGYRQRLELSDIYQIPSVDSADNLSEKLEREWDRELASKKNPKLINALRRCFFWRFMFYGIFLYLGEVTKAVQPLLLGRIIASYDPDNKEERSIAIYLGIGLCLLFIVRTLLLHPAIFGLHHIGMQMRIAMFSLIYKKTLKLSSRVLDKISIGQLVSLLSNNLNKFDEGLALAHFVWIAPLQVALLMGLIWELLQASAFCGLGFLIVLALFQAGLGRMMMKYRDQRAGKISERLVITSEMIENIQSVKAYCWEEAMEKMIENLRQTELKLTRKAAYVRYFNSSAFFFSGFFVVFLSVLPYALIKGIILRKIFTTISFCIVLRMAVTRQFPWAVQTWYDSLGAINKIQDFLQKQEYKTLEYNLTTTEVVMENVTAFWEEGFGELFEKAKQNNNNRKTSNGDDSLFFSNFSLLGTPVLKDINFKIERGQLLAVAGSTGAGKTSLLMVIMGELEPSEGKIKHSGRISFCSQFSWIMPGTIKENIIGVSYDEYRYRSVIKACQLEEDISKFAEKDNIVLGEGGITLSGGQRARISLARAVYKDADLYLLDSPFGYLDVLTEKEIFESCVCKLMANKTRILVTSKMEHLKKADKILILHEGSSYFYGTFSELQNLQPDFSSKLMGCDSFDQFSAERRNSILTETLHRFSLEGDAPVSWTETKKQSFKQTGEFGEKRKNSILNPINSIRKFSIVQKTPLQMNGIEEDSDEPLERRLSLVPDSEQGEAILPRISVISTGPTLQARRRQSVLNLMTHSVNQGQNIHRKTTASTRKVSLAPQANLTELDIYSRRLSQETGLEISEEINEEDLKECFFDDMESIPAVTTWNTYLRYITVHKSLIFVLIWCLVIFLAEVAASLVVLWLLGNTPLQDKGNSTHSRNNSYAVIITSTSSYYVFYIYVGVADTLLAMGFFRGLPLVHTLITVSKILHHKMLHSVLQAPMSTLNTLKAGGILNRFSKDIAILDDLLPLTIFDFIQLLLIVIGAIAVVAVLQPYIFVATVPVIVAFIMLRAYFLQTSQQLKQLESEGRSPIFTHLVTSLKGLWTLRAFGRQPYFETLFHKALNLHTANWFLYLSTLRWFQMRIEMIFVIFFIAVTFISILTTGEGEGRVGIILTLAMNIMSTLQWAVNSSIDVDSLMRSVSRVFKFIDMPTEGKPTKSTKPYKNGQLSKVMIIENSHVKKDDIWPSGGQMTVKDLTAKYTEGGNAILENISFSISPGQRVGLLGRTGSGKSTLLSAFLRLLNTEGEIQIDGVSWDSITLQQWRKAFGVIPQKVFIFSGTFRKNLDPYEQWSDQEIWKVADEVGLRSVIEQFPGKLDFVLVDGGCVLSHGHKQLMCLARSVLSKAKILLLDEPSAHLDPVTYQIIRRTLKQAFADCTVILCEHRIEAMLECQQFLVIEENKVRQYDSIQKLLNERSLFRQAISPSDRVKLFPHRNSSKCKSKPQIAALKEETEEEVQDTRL

The experiment concerns the target T1, F508del (Homo sapiens, UniProt P13569, DEL508-508).
T1 construct: expressed in transfected cells
In words: Protocol 1: membrane potential optical assay (FLIPR III, voltage sensing dye), identification of potentiator compounds. As to conditions: Table 3, compounds of Table 1. It is filed as cell-based. The procedure, abridged:
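Gating potentiation is read as a membrane-potential fluorescence change (FLIPR III, voltage-sensing dye) after one forskolin addition under a Cl− gradient, with gluconate replacing chloride, pH 7.4. Cells are F508del-expressing NIH3T3 mouse fibroblasts held 24 h at 27 °C and exposed to compound before dye loading.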
With `Cc1cc(C(=O)NS(=O)(=O)c2cccc(N)n2)c(N2CC(C)CC2(C)C)nc1-c1cc(F)cc(OCC(C)C)c1` (stereo not drawn) [Compound 1269, N-[(6-amino-2-pyridyl)sulfonyl]-6-(3-fluoro-5-isobutoxy-phenyl)-5-methyl-2-(2,2,4-trimethylpyrrolidin-1-yl)pyridine-3-carboxamide], the EC30 result was “+++ (“+++” means <3 uM)”. Turning to `CC1(C)CN(c2nc(C(F)(F)F)ccc2C(=O)NS(=O)(=O)c2cccc(N)n2)C(C)(C)C1` [Compound 1635, N-[(6-amino-2-pyridyl)sulfonyl]-2-(2,2,4,4-tetramethylpyrrolidin-1-yl)-6-(trifluoromethyl)pyridine-3-carboxamide], the EC30 result is recorded as “+++ (“+++” means <3 uM)”. For `CC(C)C(C)c1ccc(C(=O)NS(=O)(=O)c2cccnc2N)c(N2C[C@@H](C)CC2(C)C)n1` (stereo partly drawn) [Compound 1911, N-[(2-amino-3-pyridyl)sulfonyl]-6-(1,2-dimethylpropyl)-2-[(4S)-2,2,4-trimethylpyrrolidin-1-yl]pyridine-3-carboxamide], the EC30 result was “+++ (“+++” means <3 uM)”. For `CC1CN(c2ncccc2C(=O)NS(=O)(=O)c2cccc(OCc3ccsc3)n2)C(C)(C)C1` (stereo not drawn) [Compound 1992, N—[[6-(3-thienylmethoxy)-2-pyridyl]sulfonyl]-2-(2,2,4-trimethylpyrrolidin-1-yl)pyridine-3-carboxamide], the EC30 result is on record as “+++ (“+++” means <3 uM)”. The result for `COc1cc(F)ccc1-c1ccc(C(=O)NS(=O)(=O)c2cccc(N)n2)c(Oc2c(C)cc(C)cc2C)n1` [Compound 830, N-[(6-amino-2-pyridyl)sulfonyl]-6-(4-fluoro-2-methoxy-phenyl)-2-(2,4,6-trimethylphenoxy)pyridine-3-carboxamide] reads “+++ (“+++” means <3 uM)”. To `CC(C)COc1cc(F)cc(-c2ccc(C(=O)NS(=O)(=O)c3ccn[nH]3)c(N3CCC(F)(F)CC3)n2)c1` [Compound 1006, 2-(4,4-difluoro-1-piperidyl)-6-(3-fluoro-5-isobutoxy-phenyl)-N-(1H-pyrazol-5-ylsulfonyl)pyridine-3-carboxamide] belongs “+++ (“+++” means <3 uM)”; to `CC(C)Oc1ccc(-c2ccc(C(=O)NS(=O)(=O)c3cccc(N)n3)c(N3CC(C)(C)CC3(C)C)n2)cn1` [Compound 915, N-[(6-amino-2-pyridyl)sulfonyl]-6-(6-isopropoxy-3-pyridyl)-2-(2,2,4,4-tetramethylpyrrolidin-1-yl)pyridine-3-carboxamide], “+++ (“+++” means <3 uM)”.

As to `CC1CN(c2ncccc2C(=O)NS(=O)(=O)c2cccc(OC(C)C3CCCCC3)n2)C(C)(C)C1` (stereo not drawn) [Compound 1919, N—[[6-(1-cyclohexylethoxy)-2-pyridyl]sulfonyl]-2-(2,2,4-trimethylpyrrolidin-1-yl)pyridine-3-carboxamide], the EC30 result is reported as “+++ (“+++” means <3 uM)”. To `CC(C)Oc1ccc(-c2ccc(C(=O)NS(=O)(=O)c3cccc(N)n3)c(N3CCCC3C)n2)cn1` (stereo not drawn) [Compound 1271, N-[(6-amino-2-pyridyl)sulfonyl]-6-(6-isopropoxy-3-pyridyl)-2-(2-methylpyrrolidin-1-yl)pyridine-3-carboxamide] belongs “+++ (“+++” means <3 uM)”; to `CC(C)COc1cc(F)cc(-c2ccc(C(=O)NS(=O)(=O)c3cccc(N)n3)c(N3CC(C(F)(F)F)CC3(C)C)n2)c1` (stereo not drawn) [Compound 1788, N-[(6-amino-2-pyridyl)sulfonyl]-2-[2,2-dimethyl-4-(trifluoromethyl)pyrrolidin-1-yl]-6-(3-fluoro-5-isobutoxy-phenyl)pyridine-3-carboxamide], “+++ (“+++” means <3 uM)”.

For the compound `C[C@@H]1CN(c2nc(-n3ccc(OCC(C)(C)C)n3)ccc2C(=O)NS(=O)(=O)c2cccnc2N)C(C)(C)C1` [Compound 1975, N-[(2-amino-3-pyridyl)sulfonyl]-6-[3-(2,2-dimethylpropoxy)pyrazol-1-yl]-2-[(4S)-2,2,4-trimethylpyrrolidin-1-yl]pyridine-3-carboxamide], the EC30 result was “+++ (“+++” means <3 uM)”.

For `CCC1(CC)CCCN(c2nc(-c3ccc(OC(C)C)nc3)ccc2C(=O)NS(=O)(=O)c2cccc(N)n2)C1` [Compound 971, N-[(6-amino-2-pyridyl)sulfonyl]-2-(3,3-diethyl-1-piperidyl)-6-(6-isopropoxy-3-pyridyl)pyridine-3-carboxamide], the EC30 result is on record as “+++ (“+++” means <3 uM)”. To `CC1CN(c2ncc(-c3cc(Cl)cc(Cl)c3)cc2C(=O)NS(=O)(=O)c2cccc(N)n2)C(C)(C)C1` (stereo not drawn) [Compound 1721, N-[(6-amino-2-pyridyl)sulfonyl]-5-(3,5-dichlorophenyl)-2-(2,2,4-trimethylpyrrolidin-1-yl)pyridine-3-carboxamide] belongs “+++ (“+++” means <3 uM)”.

Turning to `CCOC1CCCN(c2nc(-c3ccc(OC(C)C)nc3)ccc2C(=O)NS(=O)(=O)c2cccc(N)n2)C1` (stereo not drawn) [Compound 960, N-[(6-amino-2-pyridyl)sulfonyl]-2-(3-ethoxy-1-piperidyl)-6-(6-isopropoxy-3-pyridyl)pyridine-3-carboxamide], the EC30 result is “++ (“++” means between 3 uM and 10 uM)”. To `COc1cc(C(C)=O)ccc1Oc1cccc(S(=O)(=O)NC(=O)c2cccnc2N2CC(C)CC2(C)C)n1` (stereo not drawn) [Compound 1744, N—[[6-(4-acetyl-2-methoxy-phenoxy)-2-pyridyl]sulfonyl]-2-(2,2,4-trimethylpyrrolidin-1-yl)pyridine-3-carboxamide] belongs “++ (“++” means between 3 uM and 10 uM)”; to `Cc1ccccc1-c1ccc(C(=O)NS(=O)(=O)c2cccnc2N)c(N2C[C@@H](C)CC2(C)C)n1` [Compound 1766, N-[(2-amino-3-pyridyl)sulfonyl]-6-(o-tolyl)-2-[(4S)-2,2,4-trimethylpyrrolidin-1-yl]pyridine-3-carboxamide], “+++ (“+++” means <3 uM)”; to `COC1CCN(c2nc(-c3cc(F)cc(OCC(C)C)c3)ccc2C(=O)NS(=O)(=O)c2ccn[nH]2)CC1` [Compound 1245, 6-(3-fluoro-5-isobutoxy-phenyl)-2-(4-methoxy-1-piperidyl)-N-(1H-pyrazol-5-ylsulfonyl)pyridine-3-carboxamide], “+ (“+” means greater than 10 uM)”. The result for `Cc1ccc(-c2ccc(C(=O)NS(=O)(=O)N3CC[C@H](N)C3)c(N3C[C@@H](C)CC3(C)C)n2)c(F)c1` [Compound 1967, N-[(3S)-3-aminopyrrolidin-1-yl]sulfonyl-6-(2-fluoro-4-methyl-phenyl)-2-[(4S)-2,2,4-trimethylpyrrolidin-1-yl]pyridine-3-carboxamide] reads “++ (“++” means between 3 uM and 10 uM)”; that for `CC(=O)N1CC=C(c2ccc(C(=O)NS(=O)(=O)c3cccc(N)n3)c(Oc3c(C)cc(C)cc3C)n2)CC1` [Compound 1649, 6-(1-acetyl-3,6-dihydro-2H-pyridin-4-yl)-N-[(6-amino-2-pyridyl)sulfonyl]-2-(2,4,6-trimethylphenoxy)pyridine-3-carboxamide], “++ (“++” means between 3 uM and 10 uM)”. For the compound `CCOC1CCN(c2nc(-c3ccc(OC(C)C)nc3)ccc2C(=O)NS(=O)(=O)c2cccc(N)n2)CC1` [Compound 1214, N-[(6-amino-2-pyridyl)sulfonyl]-2-(4-ethoxy-1-piperidyl)-6-(6-isopropoxy-3-pyridyl)pyridine-3-carboxamide], the EC30 entry is “++ (“++” means between 3 uM and 10 uM)”. To `C[C@@H]1CN(c2nc(C3CCOC3)ccc2C(=O)NS(=O)(=O)c2cccc(N)n2)C(C)(C)C1` (stereo partly drawn) [Compound 1534, N-[(6-amino-2-pyridyl)sulfonyl]-6-tetrahydrofuran-3-yl-2-[(4S)-2,2,4-trimethylpyrrolidin-1-yl]pyridine-3-carboxamide] belongs “++ (“++” means between 3 uM and 10 uM)”. The result for `CCOC(=O)C1CC=C(c2ccc(C(=O)NS(=O)(=O)c3cccc(N)n3)c(Oc3c(C)cc(C)cc3C)n2)CC1` (stereo not drawn) [Compound 1432, ethyl 4-[5-[(6-amino-2-pyridyl)sulfonylcarbamoyl]-6-(2,4,6-trimethylphenoxy)-2-pyridyl]cyclohex-3-ene-1-carboxylate] reads “+++ (“+++” means <3 uM)”. Take `COc1ncccc1S(=O)(=O)NC(=O)c1ccc(-c2ccccc2)nc1Oc1c(C)cc(C)cc1C` [Compound 939, N-[(2-methoxy-3-pyridyl)sulfonyl]-6-phenyl-2-(2,4,6-trimethylphenoxy)pyridine-3-carboxamide]: the EC30 result is recorded as “+++ (“+++” means <3 uM)”. To `CC(C)COc1cc(F)cc(-c2ccc(C(=O)NS(=O)(=O)c3cccc(N)n3)c(N3CC4CCCC4C3)n2)c1` (stereo not drawn) [Compound 857, 2-(3,3a,4,5,6,6a-hexahydro-1H-cyclopenta[c]pyrrol-2-yl)-N-[(6-amino-2-pyridyl)sulfonyl]-6-(3-fluoro-5-isobutoxy-phenyl)pyridine-3-carboxamide] belongs “+++ (“+++” means <3 uM)”.

Consider `Cc1ccc(-c2nc(C(C)(C)C)ccc2C(=O)NS(=O)(=O)c2ccc(O)cc2)cc1` [Compound 809, 6-tert-butyl-N-(4-hydroxyphenyl)sulfonyl-2-(p-tolyl)pyridine-3-carboxamide], for which the EC30 entry was “++ (“++” means between 3 uM and 10 uM)”.

In the case of `CC(C)COc1cc(F)cc(-c2ccc(C(=O)NS(=O)(=O)c3ccn[nH]3)c(N3CCC(C)C(C)(C)C3)n2)c1` (stereo not drawn) [Compound 1174, 6-(3-fluoro-5-isobutoxy-phenyl)-N-(1H-pyrazol-5-ylsulfonyl)-2-(3,3,4-trimethyl-1-piperidyl)pyridine-3-carboxamide], the EC30 entry is reported as “+++ (“+++” means <3 uM)”. Turning to `CCO/C=C/c1cc(C(=O)NS(=O)(=O)c2cccc(N)n2)c(N2C[C@@H](C)CC2(C)C)nc1C(C)(C)C` [Compound 1626, N-[(6-amino-2-pyridyl)sulfonyl]-6-tert-butyl-5-[(E)-2-ethoxyvinyl]-2-[(4S)-2,2,4-trimethylpyrrolidin-1-yl]pyridine-3-carboxamide], the EC30 entry is listed as “+++ (“+++” means <3 uM)”.
